This note sets out measurements from patent US11149037B2, “Pyrazole MAGL inhibitors” (H. Lundbeck A/S, priority 2017, dated 2021).

Experiment [1] has as its target T1, MAGL (Mus musculus (Mouse), UniProt O35678). The experiment is described as follows: In vitro competitive activity-based protein profiling, mouse proteomes (brain membrane fraction or cell lysates). Format: biochemical. The following applies: mouse proteome; for inhibition at 1 µM: read-out: MAGL % inh. 1 μM (mouse). The method, boiled down:
(§1)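 Activity of MAGL and FAAH was quantified from fluorescent gel band intensities. Beforehand, inhibitors at several concentrations competed against subsequent probe labelling (FP-Rh, JW912 or HT-01) in species-matched proteomes, each step 30 min at 37° C.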

For experiment [2], the target named is T2, FAAH (Mus musculus (Mouse), UniProt O08914). Described as above. The following applies: mouse proteome; for inhibition at 1 µM: read-out: FAAH % inh. 1 μM (mouse). Format: biochemical. The method, boiled down:
as §1

Experiment [3] concerns the target MAGL (Homo sapiens (Human), UniProt Q99685). The experiment is described as follows: In vitro competitive activity-based protein profiling, human proteomes (prefrontal cortex or PC3 cell membrane fractions). Format: biochemical. The following applies: human proteome; for inhibition at 1 µM: read-out: MAGL % inh. 1 μM (human). A digest of the protocol:
as §1

Experiment [4] addresses FAAH (Homo sapiens (Human), UniProt O00519). Described as above. Type of experiment: biochemical. The following applies: human proteome; for inhibition at 1 µM: read-out: FAAH % inh. 1 μM (human). A digest of the protocol: as §1
Experiment [5] concerns the target T1, MAGL. Kind of experiment: Mouse brain proteomes from inhibitor treated mice (oral gavage, sacrificed 4 h after administration). Format: in vivo. To be noted: 5 mg/kg oral gavage. How it is done: (§2) Preparation of Mouse Brain Proteomes from Inhibitor Treated Mice.
(§3) Inhibitors were administered to wild-type C57B1/6J by oral gavage in a vehicle of polyethylene glycol. Each animal was sacrificed 4 h following administration and brain proteomes were prepared and analyzed according to previously established methods (See Niphakis, M. J., et al. (2011) ACS Chem. Neurosci. and Long, J. Z., et al. Nat. Chem. Biol. 5:37-44).

The target in experiment [6] is T2, FAAH. The experiment is described as above. Format: in vivo. To be noted: 5 mg/kg oral gavage. How it is done:
as §2, §3

Structures are written as SMILES. A value given as a limit tells only on which side of the number the result lay.

Sequence of MAGL (Homo sapiens (Human), UniProt Q99685) (Q99685 whole entry): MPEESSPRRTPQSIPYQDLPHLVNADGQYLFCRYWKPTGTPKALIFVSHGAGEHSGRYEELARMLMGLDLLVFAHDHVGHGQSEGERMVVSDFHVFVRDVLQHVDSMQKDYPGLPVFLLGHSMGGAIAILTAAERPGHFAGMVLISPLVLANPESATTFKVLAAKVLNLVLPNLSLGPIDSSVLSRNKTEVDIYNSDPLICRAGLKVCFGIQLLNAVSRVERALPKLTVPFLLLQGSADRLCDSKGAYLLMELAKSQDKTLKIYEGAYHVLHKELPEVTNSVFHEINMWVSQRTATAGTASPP
T1 sequence (O35678 whole entry): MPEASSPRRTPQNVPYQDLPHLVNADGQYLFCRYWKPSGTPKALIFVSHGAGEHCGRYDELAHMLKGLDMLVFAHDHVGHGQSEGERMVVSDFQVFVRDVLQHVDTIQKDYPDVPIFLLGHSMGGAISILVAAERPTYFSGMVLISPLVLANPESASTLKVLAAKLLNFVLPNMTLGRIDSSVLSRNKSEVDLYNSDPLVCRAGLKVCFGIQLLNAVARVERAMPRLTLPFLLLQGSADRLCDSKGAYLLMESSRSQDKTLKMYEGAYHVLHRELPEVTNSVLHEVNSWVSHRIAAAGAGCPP
Sequence of FAAH (Homo sapiens (Human), UniProt O00519) (O00519 whole entry): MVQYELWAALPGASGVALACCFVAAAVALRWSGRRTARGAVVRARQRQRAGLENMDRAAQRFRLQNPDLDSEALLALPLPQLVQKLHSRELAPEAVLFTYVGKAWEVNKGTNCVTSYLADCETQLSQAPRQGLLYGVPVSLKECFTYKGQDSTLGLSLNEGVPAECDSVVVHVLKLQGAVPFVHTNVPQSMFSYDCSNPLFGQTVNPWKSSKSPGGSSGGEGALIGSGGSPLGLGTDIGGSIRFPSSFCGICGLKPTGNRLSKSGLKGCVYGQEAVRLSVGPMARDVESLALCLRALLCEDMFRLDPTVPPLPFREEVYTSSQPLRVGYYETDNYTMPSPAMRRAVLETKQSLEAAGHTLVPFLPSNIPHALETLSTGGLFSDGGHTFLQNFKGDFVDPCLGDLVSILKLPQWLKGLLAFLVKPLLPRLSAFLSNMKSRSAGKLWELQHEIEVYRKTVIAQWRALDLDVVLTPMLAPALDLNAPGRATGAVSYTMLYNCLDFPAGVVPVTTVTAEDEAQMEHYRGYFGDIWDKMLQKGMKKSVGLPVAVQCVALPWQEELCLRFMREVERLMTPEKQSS
T2 sequence (O08914 whole entry): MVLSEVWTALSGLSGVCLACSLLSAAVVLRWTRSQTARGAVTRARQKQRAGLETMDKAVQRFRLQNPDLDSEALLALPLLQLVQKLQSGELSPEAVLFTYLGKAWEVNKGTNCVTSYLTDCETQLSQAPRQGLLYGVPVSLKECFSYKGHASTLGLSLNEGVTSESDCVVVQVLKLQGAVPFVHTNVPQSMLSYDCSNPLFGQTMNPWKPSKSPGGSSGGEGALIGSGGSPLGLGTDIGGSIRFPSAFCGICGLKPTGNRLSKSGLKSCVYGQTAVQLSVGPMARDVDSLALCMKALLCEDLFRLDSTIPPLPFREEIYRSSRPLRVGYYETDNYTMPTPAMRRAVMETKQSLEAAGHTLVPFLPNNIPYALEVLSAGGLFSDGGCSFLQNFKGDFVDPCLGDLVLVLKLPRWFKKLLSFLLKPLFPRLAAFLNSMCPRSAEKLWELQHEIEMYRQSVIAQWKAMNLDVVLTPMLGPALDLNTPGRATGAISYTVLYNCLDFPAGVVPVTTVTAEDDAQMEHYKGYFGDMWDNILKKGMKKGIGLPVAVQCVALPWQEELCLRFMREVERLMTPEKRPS

The term IC50 denotes the concentration needed to halve the response being measured. A high value points to lower potency. `CC(=O)Nc1ccn(C(=O)N2CCN(Cc3ccc(N4CC5COCC5C4)cc3C(F)(F)F)CC2)n1` (stereo not shown) [Example 22, N-(1-(4-(4-(tetrahydro-1H-furo[3,4-c]pyrrol-5(3H)-yl)-2-(trifluoromethyl)benzyl)piperazine-1-carbonyl)-1H-pyrazol-3-yl)acetamide]: the inhibition at 1 µM on MAGL [1] is greater than 75%; at FAAH [2], greater than 75%; at MAGL [3] (1 μM) it was greater than 75%; on FAAH [4] (1 μM), 50 to 75%. In addition, the IC50 on MAGL [3] is less than 0.1 µM; on FAAH [4], 0.1 to 1 µM. Also, the “MAGL % inh. 5 mg/kg (mouse)” value on MAGL [5] is “C (% inhibition is greater than or equal to 25% and less than 50%)”. Also, at FAAH [6], the “FAAH % inh. 5 mg/kg (mouse)” value was “C (% inhibition is greater than or equal to 25% and less than 50%)”.

For the compound `CC(C)OC1CCN(c2cc(CN3CCN(C(=O)n4ccc(NS(C)(=O)=O)n4)C[C@@H]3C)ccc2Cl)CC1` [Example 32, (S)—N-(1-(4-(4-chloro-3-(4-isopropoxypiperidin-1-yl)benzyl)-3-methylpiperazine-1-carbonyl)-1H-pyrazol-3-yl)methanesulfonamide], the inhibition at 1 µM on MAGL [1] was greater than 75%; on FAAH [2], 0 to 25%; on MAGL [3] (1 μM), greater than 75%; at FAAH [4] (1 μM), 0 to 25%. Besides, at MAGL [5], the “MAGL % inh. 5 mg/kg (mouse)” value is recorded as “A (% inhibition is greater than or equal to 75%)”. In addition, the “FAAH % inh. 5 mg/kg (mouse)” value on FAAH [6] was “D (% inhibition is greater than or equal to 0% and less than 25%)”.

As for `CC(=O)Nc1ccn(C(=O)N2CCC3(CCCN3Cc3cc4cc(Cl)ccc4s3)CC2)n1` [Example 39, N-(1-(1-((5-Chlorobenzo[b]thiophen-2-yl)methyl)-1,8-diazaspiro[4.5]decane-8-carbonyl)-1H-pyrazol-3-yl)acetamide], the inhibition at 1 µM was greater than 75% on MAGL [1] and 50 to 75% on FAAH [2]. Also, the results for the IC50 at MAGL [3] and on FAAH [4] were less than 0.1 µM and 1 to 10 µM, respectively. In addition, at MAGL [5], the “MAGL % inh. 5 mg/kg (mouse)” value is “A (% inhibition is greater than or equal to 75%)”. Also, on FAAH [6], the “FAAH % inh. 5 mg/kg (mouse)” value is “D (% inhibition is greater than or equal to 0% and less than 25%)”.

Regarding `CS(=O)(=O)Nc1ccn(C(=O)N2CCC3(CCN(Cc4ccc(C(F)(F)F)cc4N4CCCC4)C3)CC2)n1` [Example 58, N-(1-(2-(2-(Pyrrolidin-1-yl)-4-(trifluoromethyl)benzyl)-2,8-diazaspiro[4.5]decane-8-carbonyl)-1H-pyrazol-3-yl)methanesulfonamide], the inhibition at 1 µM was greater than 75% at MAGL [1], 0 to 25% at FAAH [2], greater than 75% at MAGL [3] (1 μM) and 0 to 25% at FAAH [4] (1 μM). Also, on MAGL [5], the “MAGL % inh. 5 mg/kg (mouse)” value is listed as “A (% inhibition is greater than or equal to 75%)”. For the same compound, at FAAH [6], the “FAAH % inh. 5 mg/kg (mouse)” value is “D (% inhibition is greater than or equal to 0% and less than 25%)”.

For the compound `CS(=O)(=O)Nc1ccn(C(=O)N2CCC3(CCN(Cc4ccc(Cl)cc4N4CCCC4)C3)CC2)n1` [Example 63, N-(1-(2-(4-Chloro-2-(pyrrolidin-1-yl)benzyl)-2,8-diazaspiro[4.5]decane-8-carbonyl)-1H-pyrazol-3-yl)methanesulfonamide], the inhibition at 1 µM on MAGL [1] was greater than 75%; on FAAH [2], 0 to 25%; on MAGL [3] (1 μM) it was greater than 75%; on FAAH [4] (1 μM), 0 to 25%. Besides, the values for the IC50 at MAGL [3] and at FAAH [4] were less than 0.1 µM and 1 to 10 µM, respectively. The “MAGL % inh. 5 mg/kg (mouse)” value on MAGL [5] is “C (% inhibition is greater than or equal to 25% and less than 50%)”. Moreover, the “FAAH % inh. 5 mg/kg (mouse)” value at FAAH [6] was “D (% inhibition is greater than or equal to 0% and less than 25%)”.

As for `CS(=O)(=O)Nc1ccn(C(=O)N2CCN(Cc3ccc(C(F)(F)F)nc3N3CCCC3)CC2)n1` [Example 71, N-(1-(4-((2-(Pyrrolidin-1-yl)-6-(trifluoromethyl)pyridin-3-yl)methyl)piperazine-1-carbonyl)-1H-pyrazol-3-yl)methanesulfonamide], the inhibition at 1 µM at MAGL [1] was greater than 75%; at FAAH [2], 0 to 25%; on MAGL [3] (1 μM), greater than 75%; at FAAH [4] (1 μM), 0 to 25%. Moreover, the “MAGL % inh. 5 mg/kg (mouse)” value on MAGL [5] was “A (% inhibition is greater than or equal to 75%)”. Further, the “FAAH % inh. 5 mg/kg (mouse)” value at FAAH [6] was “D (% inhibition is greater than or equal to 0% and less than 25%)”.

As to `CN(Cc1ccc(C(F)(F)F)cc1N1CCCC1)C1(C)CCN(C(=O)n2ccc(NS(C)(=O)=O)n2)CC1` [Example 75, N-(1-(4-Methyl-4-(methyl(2-(pyrrolidin-1-yl)-4-(trifluoromethyl)benzyl)amino)piperidine-1-carbonyl)-1H-pyrazol-3-yl)methanesulfonamide], the inhibition at 1 µM at MAGL [1] is greater than 75%; on FAAH [2] it was 0 to 25%; on MAGL [3] (1 μM) it was greater than 75%; on FAAH [4] (1 μM) it was 0 to 25%. Further, at MAGL [5], the “MAGL % inh. 5 mg/kg (mouse)” value was “A (% inhibition is greater than or equal to 75%)”. Further, the “FAAH % inh. 5 mg/kg (mouse)” value on FAAH [6] was “D (% inhibition is greater than or equal to 0% and less than 25%)”.

For `CC(=O)Nc1ccn(C(=O)N2CCN(Cc3ccc(C(F)(F)F)cc3NCCCC(=O)O)CC2)n1` [Example 76, 4-((2-((4-(3-Acetamido-1H-pyrazole-1-carbonyl)piperazin-1-yl)methyl)-5-(trifluoromethyl)phenyl)amino)butanoic acid], the inhibition at 1 µM at MAGL [1] is greater than 75%; at FAAH [2] it was 0 to 25%; at MAGL [3] (1 μM) it was greater than 75%; on FAAH [4] (1 μM), 0 to 25%. Further, the “MAGL % inh. 5 mg/kg (mouse)” value on MAGL [5] is “D (% inhibition is greater than or equal to 0% and less than 25%)”. Moreover, the “FAAH % inh. 5 mg/kg (mouse)” value at FAAH [6] is “D (% inhibition is greater than or equal to 0% and less than 25%)”.

For `CC(=O)Nc1ccn(C(=O)N2CCC3(CCCN3Cc3ccc(C(F)(F)F)cc3NCCCC(=O)O)CC2)n1` [Example 79, 4-((2-((8-(3-Acetamido-1H-pyrazole-1-carbonyl)-1,8-diazaspiro[4.5]decan-1-yl)methyl)-5-(trifluoromethyl)phenyl)amino)butanoic acid], the inhibition at 1 µM was greater than 75% at MAGL [1], 0 to 25% at FAAH [2], greater than 75% on MAGL [3] (1 μM) and 0 to 25% at FAAH [4] (1 μM). The “MAGL % inh. 5 mg/kg (mouse)” value on MAGL [5] is “D (% inhibition is greater than or equal to 0% and less than 25%)”. In addition, at FAAH [6], the “FAAH % inh. 5 mg/kg (mouse)” value was “D (% inhibition is greater than or equal to 0% and less than 25%)”.

For the compound `CS(=O)(=O)Nc1ccn(C(=O)N2CCC(Oc3ccc(C(F)(F)F)cc3N3CCCC3)CC2)n1` [Example 80, N-(1-(4-(2-(Pyrrolidin-1-yl)-4-(trifluoromethyl)phenoxy)piperidine-1-carbonyl)-1H-pyrazol-3-yl)methanesulfonamide], the inhibition at 1 µM is greater than 75% on MAGL [1], 0 to 25% on FAAH [2], greater than 75% at MAGL [3] (1 μM) and 0 to 25% on FAAH [4] (1 μM). Besides, the “MAGL % inh. 5 mg/kg (mouse)” value at MAGL [5] is reported as “A (% inhibition is greater than or equal to 75%)”. Also, the “FAAH % inh. 5 mg/kg (mouse)” value at FAAH [6] was “D (% inhibition is greater than or equal to 0% and less than 25%)”.

In the case of `CC(=O)Nc1ccn(C(=O)N2CCC3(CCCN3C(=O)c3ccc(C#N)c(C4CC4)c3)CC2)n1` [Example 87, N-(1-(1-(4-Cyano-3-cyclopropylbenzoyl)-1,8-diazaspiro[4.5]decane-8-carbonyl)-1H-pyrazol-3-yl)acetamide], the inhibition at 1 µM at MAGL [1] is greater than 75%; on FAAH [2], 0 to 25%; on MAGL [3] (1 μM), greater than 75%; at FAAH [4] (1 μM), 0 to 25%. The “MAGL % inh. 5 mg/kg (mouse)” value at MAGL [5] was “D (% inhibition is greater than or equal to 0% and less than 25%)”. Also, the “FAAH % inh. 5 mg/kg (mouse)” value at FAAH [6] is “D (% inhibition is greater than or equal to 0% and less than 25%)”.

With `CS(=O)(=O)Nc1ccn(C(=O)N2CCN(Cc3ccc(Cl)nc3N3CCCC3)CC2)n1` [Example 90, N-(1-(4-((6-Chloro-2-(pyrrolidin-1-yl)pyridin-3-yl)methyl)piperazine-1-carbonyl)-1H-pyrazol-3-yl)methanesulfonamide], the inhibition at 1 µM on MAGL [1] was greater than 75%; at FAAH [2], 0 to 25%; on MAGL [3] (1 μM) it was greater than 75%; at FAAH [4] (1 μM), 0 to 25%. Moreover, at MAGL [5], the “MAGL % inh. 5 mg/kg (mouse)” value is “C (% inhibition is greater than or equal to 25% and less than 50%)”. Further, the “FAAH % inh. 5 mg/kg (mouse)” value on FAAH [6] is “D (% inhibition is greater than or equal to 0% and less than 25%)”.

Consider `CS(=O)(=O)Nc1ccn(C(=O)N2C[C@H]3C[C@@H](N(CC(=O)O)Cc4cc(Cl)ccc4C(F)(F)F)C[C@H]3C2)n1` [Example 93, N-(5-Chloro-2-(trifluoromethyl)benzyl)-N-((3aR,5r,6aS)-2-(3-(methylsulfonamido)-1H-pyrazole-1-carbonyl)octahydrocyclopenta[c]pyrrol-5-yl)glycine], for which, at MAGL [1], the “MAGL % inh. 1 μM (mouse)” value was “A (% inhibition is greater than or equal to 75%)”. The “FAAH % inh. 1 μM (mouse)” value on FAAH [2] is “D (% inhibition is greater than or equal to 0% and less than 25%)”. Besides, at MAGL [3] (1 μM), the “MAGL % inh. 1 μM (human)” value is “A (% inhibition is greater than or equal to 75%)”. Further, the “FAAH % inh. 1 μM (human)” value at FAAH [4] (1 μM) is “D (% inhibition is greater than or equal to 0% and less than 25%)”. The “MAGL % inh. 5 mg/kg (mouse)” value on MAGL [5] was “D (% inhibition is greater than or equal to 0% and less than 25%)”. The “FAAH % inh. 5 mg/kg (mouse)” value on FAAH [6] was “D (% inhibition is greater than or equal to 0% and less than 25%)”.
